Common to all, as to format: in vivo, Arabidopsis
One series has as its system virulent PmaDG3. As to the kind of experiment: Azelaic acid-induced resistance against virulent PmaDG3 infection. Here is the method:
(§1) (A) Local and systemic resistance response by azelaic acid treatment against virulent PmaDG3 infections. Local or systemic leaves of 21˜23-day-old plants were treated with 5 mM MES (pH 5.6) (black bars) or 1 mM azelaic acid in 5 mM MES (pH 5.6, white bars) 2 days prior to challenge with the virulent PmaDG3 strain (OD600=0.0001). MES and azelaic acid were introduced into leaves by syringe-infiltration. […] (B) Growth of avirulent strains PmaDG6 (PmaDG3 carrying avrRpt2) and PmaDG34 (PmaDG3 carrying avrRpm1) in leaves of Col pretreated with 5 mM MES (black bars) or 1 mM azelaic acid in 5 mM MES (pH 5.6, white bars). (C) Twenty three-day-old plants were pretreated with 1, 10, 100, and 1000 μM azelaic acid in 5 mM MES or 5 mM MES for 2 days and then subjected to infection with virulent PmaDG3 at OD600=0.0001. […] (D) Plants were treated with 5 mM MES or 1 mM azelaic acid for the indicated times prior to inoculation with virulent PmaDG3. Inoculations with PmaDG3 were performed between noon and 1 pm. Azelaic acid (Aza) in 5 mM MES was applied to plants using a hand-sprayer. The growth of bacteria was measured on day 3 after inoculation. […] (E) Plants were treated and infected as in (D), except that infections were performed between […]. (*p<0.04). These experiments were repeated two to four times to confirm reproducibility.
1 mM azelaic acid in 5 mM MES was applied to wild-type Col, SAR-defective, and SA-deficient mutants (A) and jasmonic acid/ethylene-insensitive mutants (B) 2 days prior to challenge-inoculation of virulent PmaDG3 (OD600=0.0001). […] The experiments were repeated a minimum of three times. The number of asterisks indicates samples that were different from one another at given levels of statistical significance (*p<0.05, **p<0.01).
(§2) Biological activity of azelaic acid in inducing disease resistance. 1 mM azelaic acid was infiltrated into leaves 3 and 4 of 3-week old plants. Two days later, plants were inoculated with virulent PmaDG3 onto leaves 3 and 4 or in the upper leaves, which were not pre-treated with azelaic acid (systemic leaves). Azelaic acid (1 mM) dissolved in 5 mM MES (pH 5.6) was not toxic to plant cell. […] Mock-treated and azelaic acid-treated plants were also infiltrated with avirulent derivatives of P. syringae pv. maculicola carrying avrRpt2 (PmaDG6) or avrRpm1 (PmaDG34).
PmaDG3 growth was measured after spray treatment of plants with various concentrations of azelaic acid. […] It was also tested whether azelaic acid required a certain induction period for the induced resistance response. […] However, when plants were grown in the dark for 12 hours after treatment, azelaic acid was ineffective at conferring disease resistance (FIG. 3E). […] Thus, azelaic acid induces a light-dependent disease resistance response against infection with P. syringae that is also concentration- and time-dependent.
To further characterize how plants regulate azelaic acid-induced resistance, 1 mM azelaic acid was sprayed onto wild type and several mutant plants 2 days before infection with virulent PmaDG3 and bacterial growth was measured. Unlike wild-type plants, the SA pathway mutants tested were susceptible to virulent PmaDG3 infection regardless of treatment with azelaic acid (FIG. 4A). […] Pathogen resistance was also dependent on […], which is important for SA-induced disease resistance and SAR maintenance in Arabidopsis. The growth of bacteria was also monitored in leaves of JA- and ethylene-insensitive mutants, jar1 and etr1, following treatment with 1 mM azelaic acid.

For series [1], the system named is PmaDG6 (PmaDG3 carrying avrRpt2). Put plainly: Growth of avirulent PmaDG6 in azelaic acid-pretreated leaves. Conditions: 1 mM pretreatment. On the procedure: as §1
Biological activity of azelaic acid in inducing disease resistance. […]

Another series relates to plant cell. Put plainly: Toxicity of azelaic acid to plant cell. The following applies: 1 mM in 5 mM MES (pH 5.6). Here is the method:
as §2

Series [2] concerns salicylic acid and camalexin levels. As to the kind of experiment: Endogenous salicylic acid and camalexin levels after azelaic acid spray. Conditions: 1 mM spray, no infection, vs mock. On the procedure: (§3) (A) Time course of free and total salicylic acid levels in leaves of Col after spray treatments with 5 mM MES (black bars) and 1 mM azelaic acid in 5 mM MES (white bars). (B) Camalexin levels in leaves of Col after azelaic acid treatment by spraying. Each experiment in (A) and (B) was performed with three different samples and the experiments were repeated three times. (C) Expression of an LTP gene (At2g38530) was elevated after azelaic acid treatment performed as in (A), however expression of PR1 and many other defense-related genes was unaffected. RT-PCR (23 cycles) was used to assess gene expression, with EF1a serving as a loading control.
Since resistance to P. syringae requires activation of SA-dependent defenses accompanied by elevated endogenous SA levels, it was investigated whether azelaic acid directly induces SA accumulation. […] Additionally, the levels of the phytoalexin Camalexin, a defense metabolite, were similar in azelaic acid-treated and mock-treated plants (FIG. 5B). […] To investigate whether azelaic acid might affect additional defense markers, expression of defense-related genes was monitored using a mini array. […] RT-PCR confirmed that At2g38530 was induced by azelaic acid. However, PR1, a SA signaling marker, was not induced by azelaic acid. […]

For the next series, the system named is defense-related genes. Put plainly: Defense-related gene expression after azelaic acid treatment (mini array, RT-PCR). On the procedure:
as §3
Since resistance to P. syringae requires activation of SA-dependent defenses accompanied by elevated endogenous SA levels, it was investigated whether azelaic acid directly induces SA accumulation. […] Additionally, the levels of the phytoalexin Camalexin, a defense metabolite, were similar in azelaic acid-treated and mock-treated plants (FIG. 5B). […] To investigate whether azelaic acid might affect additional defense markers, expression of defense-related genes was monitored using a mini array. […] RT-PCR confirmed that At2g38530 was induced by azelaic acid. However, PR1, a SA signaling marker, was not induced by azelaic acid. Thus, azelaic acid appears not to induce large changes in known signaling pathways activated by P. syrinagae, but does induce at least one defense-related gene.

Series [3] deals with SA-dependent defense signaling. As to the kind of experiment: Priming of SA accumulation after Pseudomonas syringae infection. Here is the method:
(§4) Five mM MES or 1 mM azelaic acid in 5 mM MES were applied to leaves of wild-type Col Arabidopsis 2 days prior to inoculation of 10 mM MgSO4 (M), virulent PmaDG3 (V) and avirulent PmaDG6 expressing AvrRpt2 (Av). Leaves were collected at different times after inoculation and endogenous free and total SA level was measured. (B) Relative PR1 expression in leaves of mock-treated plants and azelaic acid-treated plants after virulent PmaDG3 infection. The expression of PR1 is plotted on a log scale. The number of asterisks indicates samples that were different from one another at given levels of statistical significance (*p<0.075, **p<0.05, ***p<0.01).
(§5) Since SA signaling mutants were compromised in responding to azelaic acid, it was investigated whether azelaic acid might prime SA synthesis or SA-dependent defense responses in plants. To test this, plants were sprayed with 1 mM azelaic acid (or 5 mM MES) and after two days infected with virulent PmaDG3 and avirulent PmaDG6 (carrying avrRpt2) (OD600=0.01). […] The priming effect by azelaic acid was also investigated by analyzing PR1 expression, a molecular marker for SA signaling (FIG. 6B). Mock- and azelaic acid-treated plants were infected with virulent PmaDG3 (OD600=0.01) 2 days after spray treatments. PR1 expression was increased in both azelaic acid treated and untreated plants after infection with the virulent strain. However, the expression was higher in leaves pretreated with azelaic acid after pathogen infection, compared with expression in mock-treated plants following pathogen infection (note the log scale in FIG. 6B).

The next series deals with PR1 expression. Put plainly: Priming of PR1 expression after virulent PmaDG3 infection. Conditions: 1 mM spray 2 days before PmaDG3 (OD600=0.01); vs mock. Here is the method:
as §4
as §5, with “However, the expression was higher in leaves pretreated with azelaic acid after pathogen infection, compared with expression in mock-treated plants following pathogen infection (note the log scale in FIG. 6B).” left out

Each structure is given as a SMILES string. “Also recorded” adds a separate entry of the source.

On to `O=C(O)CCCCCCCC(=O)O` [azelaic acid], for which, in the series on virulent PmaDG3 (1 mM hand sprayer, light), the “resistance, pretreatment 12 hours prior to pathogen challenge” value is “low level of resistance”. For the same compound, the “resistance, pretreatment 6 hours prior to infection” value with virulent PmaDG3 (1 mM hand sprayer, plants grown in the light) was “still susceptible”. In addition, the disease symptoms entry in the series with virulent PmaDG3 (1 mM infiltrated 2 days before PmaDG3 challenge) is reported as “significant reduction in the disease symptoms; also recorded: very little disease symptom development”. Also, the “growth of PmaDG3” value in the series with virulent PmaDG3 (1 mM infiltrated 2 days before challenge, local and systemic leaves) is on record as “reduction in pathogen growth; also recorded: significantly reduced”. Besides, the “protection, inoculation 48 h after spraying” value in the series with virulent PmaDG3 (1 mM spray) is listed as “Significant protection”. Besides, in the series on virulent PmaDG3 (1 mM spray, dark), the “disease resistance, plants in the dark for 12 hours after treatment” value is listed as “ineffective”. Also, the “resistance to PmaDG3 in SAR-defective / SA pathway mutants” value with virulent PmaDG3 (1 mM sprayed 2 days before infection) is given as “did not induce plant resistance; also recorded: susceptible”. Also, the “resistance in jar1 and etr1 mutants” value in the series on virulent PmaDG3 (1 mM, JA- and ethylene-insensitive mutants) is “did not affect; also recorded: effective in restricting bacterial growth”. In addition, the bacterial growth entry with virulent PmaDG3 (1 or 10 μM vs 5 mM MES) is “no difference in bacterial growth”. In the series with virulent PmaDG3 (100 and 1000 μM pretreatment), the “suppression of bacteria growth” value is 10 fold. Moreover, in the series on virulent PmaDG3 (100 and 1000 μM pretreatment for 2 days), the “resistance to PmaDG3 / growth of bacteria” value was “significant reduction of the growth of bacteria; also recorded: resistant to PmaDG3”. The “growth of PmaDG6” value in series [1] is listed as “reduction in the growth”. For the same compound, the “toxicity to plant cell” value in the series on plant cell is “not toxic”. Moreover, the Camalexin levels result in series [2] is on record as “does not affect; also recorded: similar”. Further, the “free and total SA level” value in series [2] is given as “does not affect; also recorded: no significant difference”. Moreover, in the series with defense-related genes (RT-PCR), the “At2g38530 expression by RT-PCR” value is listed as “elevated; also recorded: induced”. In addition, the PR1 expression entry with defense-related genes (azelaic acid alone, no infection) is given as “unaffected; also recorded: not induced”. Besides, in the series with defense-related genes (mini array), the “induction of LTP gene At2g38530” value is recorded as 3 fold. The “expression of most defense-related genes” value in the series on defense-related genes (mini array, vs mock) was “unaffected; also recorded: no difference in expression”. The “levels of free SA” value in series [3] (1 mM spray 2 days before, 6 and 18 hrs after virulent PmaDG3 infection, vs mock, p<0.05) is “significantly higher”; in series [3] (after infection with PmaDG6 (carrying avrRpt2)) it was “not statistically significant”. Moreover, the “total SA accumulation” value in series [3] (18 hrs after inoculation with both PmaDG3 and PmaDG6, vs mock, p<0.01) is on record as “higher level”. Also, the “Endogenous free and total SA levels during Pseudomonas syringae infections” value in series [3] (vs mock-treated plants) was “significantly higher”. In the series with PR1 expression, the “PR1 expression after pathogen infection” value is listed as “higher”.
